According to paper PMC10895678 (Journal of Medicinal Chemistry, 2024):
≈ marks a conversion by molar mass, not a printed value.

Experiments:
MDR-M. tb 08/00483E = experiment: microbe, parasite or virus in culture; assay type: cell-based, Mycobacterium tuberculosis; conditions: for MIC99: Mycobacterium tuberculosis, read-out: MDR-M. tb 08/00483E MIC99
[1] = system: M. smegmatis and M. bovis BCG

Compound	MIC99 (MDR-M. tb 08/00483E) [µM]	resistant colonies formed [1]	fold lower MIC in MDR isolate 08/00483E in comparison to the drug-sensitive isolate (MDR-M. tb 08/00483E) [fold]
FC(F)(F)Oc1ccc(C2CC(CN3CCCC3)N2Cc2ccccc2OC(F)(F)F)cc1 (centres unmarked) [BGAz-002]	33.5 (≈ 15.9 µg/mL)	three resistant colonies	
Brc1cc(Br)cc(C2CC(CN3CCCC3)N2Cc2ccccc2Br)c1 (centres unmarked) [BGAz-004]	15.6 (≈ 8.47 µg/mL)		
CNCC1CC(c2ccc(OC(F)(F)F)cc2)N1Cc1ccccc1OC(F)(F)F (centres unmarked) [BGAz-005]	2.8 (≈ 1.22 µg/mL)		8
